Measured values reported in US4175081A, “5-Substituted thiadiazole ureas” (priority 1977, dated 1979).

Columns and labels:
Crabgrass (CG) [1] = assay: Post-emergence herbicide test; type: in vivo, Digitaria sanquinalis; conditions: two weeks after treatment; for pest or weed control at 4483.4 g/ha: 4 lb/acre
Method: (§1) Crabgrass (CG)--Digitaria sanquinalis
(§2) All crop and weed species were planted individually in 3' plastic pots containing potting soil. Four seeds each of corn, cotton, and snapbeans were seeded to a depth equal to the diameter of the seed. All other species were surface seeded and sprinkled with screened soil in an amount sufficient to cover the seed. Immediately after planting, all pots were watered by sub-irrigation in greenhouse trays. Pots for the pre-emergence phase were seeded one day before treatment.
(§3) Planting dates for the post-emergence phase were varied so that all seedlings would reach the desired stage of development simultaneously. The proper stage of seedling development for treatment in the post-emergence phase is as follows:
(§4) Spray hood constants required to deliver the above volume are as follows:
(§5) Formulations for spray applications were prepared in 50 ml volumes with the following three components: […]
(§6) Spray applications were made in a hood containing a removable belt and fixed spray nozzle. For passage through the spray hood, one pot of each specie (pre-emergence phase) was placed on the rear half of the flat. Treatments were removed to the greenhouse after spraying. Watering during the observation period was done only by sub-irrigation.
(§7) Two weeks after treatment, pre- and post-emergence injury or control was visually rated, and the results were as shown in the following tables. Pre-emergence data are provided in TABLE III and post-emergence data are provided in TABLE IV, for compounds having the formula illustrated in TABLE I. Correspondingly, pre-emergence and post-emergence data, respectively, are set forth in TABLES V AND VI, for compounds having the formula illustrated in TABLE II.

Johnson grass (JG) [2] = assay: Post-emergence herbicide test; type: in vivo, Sorgum helepense; conditions: Sorghum halepense, 336 h, 4 lb/acre, two weeks after treatment
Method: (§8) Johnson grass (JG)--Sorgum helepense
as §2, §3
(§9) Compounds were tested at rates of application equivalent to 8 lbs. of actual compound per acre in a spray volume of 38 gallons per acre. Spray hood constants required to deliver the above volume are as follows:
(§10) Formulations for spray applications were prepared in 50 ml volumes with the following three components:
(§11) Formulations for the 4 lbs/acre rate were prepared by adjusting the amount of active ingredient accordingly.
as §6, §7

Barnyard grass (BG) [3] = assay: Post-emergence herbicide test; type: in vivo; conditions: Echinochloa crus-galli, 336 h, 4 lb/acre, two weeks after treatment
Method: (§12) Barnyard grass (BG)--Echinochloa crus-galli
as §2, §3, §9, §10, §11, §6, §7

Turnip (TP) [4] = assay: Post-emergence herbicide test; type: in vivo, Brassica sp.; conditions: two weeks after treatment; for pest or weed control at 4483.4 g/ha: 4 lb/acre
Method: (§13) Turnip (TP)--Brassica sp.
as §2, §3
Pigweed and turnips: 1 or 2 true leaves above visible cotyledons.
as §4, §5, §6, §7

Cotton (CT) = assay: Post-emergence herbicide test; type: in vivo, Gossypium hirsutum var. DPL smooth leaf; conditions: two weeks after treatment; for pest or weed control at 4483.4 g/ha: 4 lb/acre
Method: Cotton (CT)--Gossypium hirsutum var. DPL smooth leaf
as §2, §3
Cotton: first true leaf 1' in length; expanded cotyledons.
as §4, §10, §11, §6, §7

Corn (CN) = assay: Post-emergence herbicide test; type: in vivo; conditions: Zea mays, 336 h, 4 lb/acre, two weeks after treatment
Method: as §2, §3, §9, §10, §11, §6, §7

Bean (BN) = assay: Post-emergence herbicide test; type: in vivo, Phaseolus vulgaris var. Black Valentine; conditions: two weeks after treatment; for pest or weed control at 4483.4 g/ha: 4 lb/acre
Method: Bean (BN)--Phaseolus vulgaris var. Black Valentine
as §2, §3
Beans: primary leaves expanded, growing point at primary leaf nodes.
as §4, §10, §11, §6, §7

Crabgrass (CG) [5] = assay: Pre-emergence herbicide test; type: in vivo, Digitaria sanquinalis; conditions: two weeks after treatment; for pest or weed control at 4483.4 g/ha: 4 lb/acre
Method: as §1, §2, §4, §5, §6, §7

Turnip (TP) [6] = assay: Pre-emergence herbicide test; type: in vivo, Brassica sp.; conditions: two weeks after treatment; for pest or weed control at 4483.4 g/ha: 4 lb/acre
Method: as §13, §2, §4, §5, §6, §7

Johnson grass (JG) [7] = assay: Pre-emergence herbicide test; type: in vivo, Sorgum helepense; conditions: Sorghum halepense, 336 h, two weeks after treatment
Method: as §8, §2, §9, §10, §11, §6, §7

Barnyard grass (BG) [8] = assay: Pre-emergence herbicide test; type: in vivo; conditions: Echinochloa crus-galli, 336 h, 4 lb/acre, two weeks after treatment
Method: as §12, §2, §9, §10, §11, §6, §7

[9] = Digitaria sanguinalis, post-emergence, 336 h
[10] = Brassica rapa, post-emergence, 336 h
[11] = Gossypium hirsutum, post-emergence, 336 h
[12] = Phaseolus vulgaris, post-emergence, 336 h
[13] = Digitaria sanguinalis, pre-emergence, 336 h
[14] = Brassica rapa, pre-emergence, 336 h

| Compound | pest or weed control at 4483.4 g/ha (Crabgrass (CG) [1]; [9]) [%] | pest or weed control at 4483.4 g/ha (Johnson grass (JG) [2]) [%] | pest or weed control at 4483.4 g/ha (Barnyard grass (BG) [3]) [%] | pest or weed control at 4483.4 g/ha (Turnip (TP) [4]; [10]) [%] | pest or weed control at 4483.4 g/ha (Cotton (CT); [11]) [%] | pest or weed control at 4483.4 g/ha (Corn (CN)) [%] | pest or weed control at 4483.4 g/ha (Bean (BN); [12]) [%] | other results |
| --- | --- | --- | --- | --- | --- | --- | --- | --- |
| CCCCCCSc1nnc(NC(=O)NC)s1 [Example 60] | 80 | 70 | 40 | 100 | 70 | 60 | 100 | pest or weed control at 2241.7 g/ha (Turnip (TP) [4]; Brassica rapa, post-emergence, 336 h, 2 lb/acre): 100% |
| CCCCCS(=O)(=O)c1nnc(NC(=O)NC)s1 [Example 64] | 90 | 50 | 60 | 90 | 70 | 30 | 90 | – |
| CCCCS(=O)(=O)c1nnc(NC(=O)NC)s1 [Example 65] | 90 | 60 | 90 | 100 | 70 | 30 | 100 | – |
| NC(=O)Nc1nnc(C(F)(F)F)s1 [Example 70] | – | – | – | – | – | – | – | Pre-emergence activity, % control, CG (Crabgrass (CG) [5]; 5 lb/acre): 10%; Pre-emergence activity, % control, CG (Crabgrass (CG) [5]; 10 lb/acre): 10%; Pre-emergence activity, % control, TP (Turnip (TP) [6]; 5 lb/acre): 10%; Pre-emergence activity, % control, TP (Turnip (TP) [6]; 10 lb/acre): 10%; Post-emergence activity, % control, CG (Crabgrass (CG) [1]; 5 lb/acre): 20%; Post-emergence activity, % control, CG (Crabgrass (CG) [1]; 10 lb/acre): 20%; Post-emergence activity, % control, TP (Turnip (TP) [4]; 5 lb/acre): 80%; Post-emergence activity, % control, TP (Turnip (TP) [4]; 10 lb/acre): 80%; Post-emergence activity, % control, CT (Cotton (CT); 5 lb/acre): 20%; Post-emergence activity, % control, CT (Cotton (CT); 10 lb/acre): 20%; Post-emergence activity, % control, BN (Bean (BN); 5 lb/acre): 50%; Post-emergence activity, % control, BN (Bean (BN); 10 lb/acre): 50% |
| CNC(=O)Nc1nnc(C(C)C)s1 [Example 82] | 50 | – | – | 80 | 80 | – | 60 | pest or weed control at 4483.4 g/ha (Crabgrass (CG) [5]; [13]): 30%; pest or weed control at 4483.4 g/ha (Johnson grass (JG) [7]; 4 lb/acre): 0%; pest or weed control at 4483.4 g/ha (Turnip (TP) [6]; [14]): 20% |
| Cc1nnc(NC(N)=O)s1 [Example 84, reference compound] | – | – | – | – | – | – | – | pest or weed control at 11208.5 g/ha (Crabgrass (CG) [5]; Digitaria sanguinalis, pre-emergence, 336 h, 10 lb/acre): 0%; pest or weed control at 11208.5 g/ha (Johnson grass (JG) [7]; 10 lb/acre): 50%; pest or weed control at 11208.5 g/ha (Turnip (TP) [6]; Brassica rapa, pre-emergence, 336 h, 10 lb/acre): 0%; pest or weed control at 11208.5 g/ha (Crabgrass (CG) [1]; Digitaria sanguinalis, post-emergence, 336 h, 10 lb/acre): 20%; pest or weed control at 11208.5 g/ha (Turnip (TP) [4]; Brassica rapa, post-emergence, 336 h, 10 lb/acre): 80%; pest or weed control at 11208.5 g/ha (Cotton (CT); Gossypium hirsutum, post-emergence, 336 h, 10 lb/acre): 20%; pest or weed control at 11208.5 g/ha (Bean (BN); Phaseolus vulgaris, post-emergence, 336 h, 10 lb/acre): 50% |
| CNC(=O)Nc1nnc(C2CC2)s1 [Example 85] | 30 | – | – | 60 | 80 | – | 50 | pest or weed control at 4483.4 g/ha (Crabgrass (CG) [5]; [13]): 0%; pest or weed control at 4483.4 g/ha (Barnyard grass (BG) [8]): 0%; pest or weed control at 4483.4 g/ha (Turnip (TP) [6]; [14]): 0% |
